Test results as given in US6534539B2, “Pharmaceutical composition and method for treatment of dyspepsia” (Hoffman-La Roche Inc., priority 2000, dated 2003).

Legend:
Type in all cases: in vivo, human
[1] = test system: normal volunteers, clinical model of dyspepsia (gastric distension); test: Changes in gastric tone (gastric baseline volume at MDP) during duodenal infusions; details: orlistat added to oil emulsion infused intraduodenally; p <0.05
From the text: (§1) The reduction of dyspeptic symptoms by lipase inhibitors, particularly orlistat, was shown in human clinical studies that measured functional dyspepsia. Specifically, we measured the reduction of dyspeptic symptoms after administration of orlistat to normal volunteers (healthy subjects without a history of gastrointestinal disease (8 female and 7 male), aged 24-38 years; normal body weight (BMI (kg/m^2): females: 21.9±0.4, males: 23.4±0.4) during infusion of a fat emulsion into the duodenum in a clinical model of idopathic dyspepsia (gastric distension). BMI means body mass index.
Fat emulsions (Table 1) were infused intraduodenally via a single-lumen, naso-duodenal polyvinyl tube as described previously (Feinle, AJP2000), while the stomach was distended. Gastrointestinal sensations were assessed by a visual analog questionnaire.
(§2) Studies were performed in a double-blind, placebo-controlled, cross-over fashion in randomised order at least one week apart. […] At first, the minimal distending pressure (MDP) was determined by increasing intragastric pressure in steps of 1 mmHg/min. Pressure was then fixed at MDP and fasting tone recorded until variations in gastric volume were no longer observed. […] Two isobaric distensions were performed, 15 min apart from each other, by increasing intrabag pressure in steps of 1 mmHg/min, while corresponding volumes were monitored. […]

[2] = test system: normal volunteers, clinical model of dyspepsia (gastric distension); test: Gastrointestinal sensations (visual analogue scales) during gastric distensions and duodenal infusion of fat emulsion
From the text: as §1
(§3) Fat emulsions (Table 1) were infused intraduodenally via a single-lumen, naso-duodenal polyvinyl tube as described previously (Feinle, AJP2000), while the stomach was distended. Gastrointestinal sensations were assessed by a visual analog questionnaire. […]
as §2

[3] = test system: normal volunteers, clinical model of dyspepsia (gastric distension); test: Pressure-volume relationships during gastric distensions and duodenal infusion of fat emulsion (gastric barostat); details: p <0.05
From the text: as §1, §3, §2

CCCCCCCCCCC[C@@H](C[C@@H]1OC(=O)[C@H]1CCCCCC)OC(=O)[C@H](CC(C)C)NC=O [orlistat]
Gastric baseline volume change during infusions [1]: completely abolished | Effects of LCTs on scores for fullness, bloating, nausea, pressure and hunger ([2]; increasing intragastric pressure during duodenal fat infusion): significantly diminished | Intensity of stomach fullness and sensitivity, nausea and bloating ([2]; orlistat added to fat emulsion infused into the duodenum, gastric distension by inflatable balloon): reduced | Maximally tolerated pressure during gastric distension [3]: significantly increased
